Patent US11986532B2 (Arvinas Operations, Inc., priority 2021, dated 2024)
Read-outs that look alike come from different tables or passages of the source.

Biological target: T1, BCL6 (Homo sapiens, UniProt P41182)
T1 construct: endogenous in cells; host or cells: T47D breast cancer epithelial cells
Experiment: Immunofluorescence protocol for high content imaging of BCL6 (degradation) in T47D cells, 3 days compound treatment
Format: cell-based
Details: for Dmax: read-out: Mean Dmax (%)** category; for DC50: read-out: Mean DC50 (nM)* category
Outline: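 High content immunofluorescence imaging (10×, 4 fields/well) of BCL6 using rabbit primary antibody, Alexa-488 secondary, cell mask and Hoechst nuclear stain after PFA fixation. Before staining, T47D cells (7K/well) were exposed for 3 days at 37° C to 3-fold serial dilutions of compound, top final concentration 0.1 or 1 μM.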

[1] = T47D cells, 3 days compound treatment

| DC50 [1] | Dmax [1] | SMILES | Dmax (T47D) | DC50 |
| --- | --- | --- | --- | --- |
| – | – | CNC(=O)COc1cc2cc(Nc3nc(N4CCC(O[C@H]5C[C@H](N6CCC7(CCN(c8ccc9c(c8)CN(C8CCC(=O)NC8=O)C9=O)C7)CC6)C5)CC4)ncc3Cl)ccc2n(C(C)C)c1=O (stereo partly shown) [Compound 361, 2-({6-[(5-chloro-2-{4-[(1r,3r)-3-{2-[2-(2,6-dioxopiperidin-3-yl)-1-oxo-2,3-dihydro-1H-isoindol-5-yl]-2,8-diazaspiro [4.5]decan-8-yl}cyclobutoxy]piperidin-1-yl}pyrimidin-4-yl)amino]-2-oxo-1-(propan-2-yl)-1,2-dihydroquinolin-3-yl}oxy)-N-methylacetamide] | 50 to 70% | < 10 nM |
| < 10 nM | 50 to 70% | CNC(=O)COc1cc2cc(Nc3nc(N4CCN(CC5CCN(c6c(F)ccc7c6C(=O)N(C6CCC(=O)NC6=O)C7=O)CC5)CC4)ncc3Cl)ccc2n(C)c1=O (stereo not shown) [Compound 35, 2-{[6-({5-chloro-2-[4-({1-[2-(2,6-dioxopiperidin-3-yl)-5-fluoro-1,3-dioxo-2,3-dihydro-1H-isoindol-4-yl]piperidin-4-yl}methyl)piperazin-1-yl]pyrimidin-4-yl}amino)-1-methyl-2-oxo-1,2-dihydroquinolin-3-yl]oxy}-N-methylacetamide] | – | – |
| – | – | CNC(=O)COc1cc2cc(Nc3nc(N4CCC(N5CCC56CN(C5CCCN(c7ccc8c(c7)CN(C7CCC(=O)NC7=O)C8=O)C5)C6)CC4)ncc3Cl)ccc2n(C(C)C)c1=O (stereo not shown) [Compound 222, 2-{[6-({5-chloro-2-[4-(6-{1-[2-(2,6-dioxopiperidin-3-yl)-1-oxo-2,3-dihydro-1H-isoindol-5-yl]piperidin-3-yl}-1,6-diazaspiro[3.3]heptan-1-yl)piperidin-1-yl]pyrimidin-4-yl}amino)-2-oxo-1-(propan-2-yl)-1,2-dihydroquinolin-3-yl]oxy}-N-methylacetamide] | 50 to 70% | < 10 nM |
| – | – | CNC(=O)COc1cc2c(F)c(Nc3cc(N4CCC(F)(CN5CCC6(CC5)CN(c5ccc7c(c5)CN(C5CCC(=O)NC5=O)C7=O)C6)CC4)ncc3Cl)ccc2n(C(C)C)c1=O (stereo not shown) [Compound 262, 2-{[6-({5-chloro-2-[4-({2-[2-(2,6-dioxopiperidin-3-yl)-1-oxo-2,3-dihydro-1H-isoindol-5-yl]-2,7-diazaspiro[3.5]nonan-7-yl}methyl)-4-fluoropiperidin-1-yl]pyridin-4-yl}amino)-5-fluoro-2-oxo-1-(propan-2-yl)-1,2-dihydroquinolin-3-yl]oxy}-N-methylacetamide] | 50 to 70% | < 10 nM |
| – | – | CNC(=O)COc1cc2cc(Nc3nc(N4CCC(O[C@H]5C[C@H](N6CCC7(CCCN(c8ccc9c(c8)CN(C8CCC(=O)NC8=O)C9=O)C7)C6)C5)CC4)ncc3Cl)ccc2n(C(C)C)c1=O (stereo partly shown) [Compound 354, 2-({6-[(5-chloro-2-{4-[(1r,3r)-3-{7-[2-(2,6-dioxopiperidin-3-yl)-1-oxo-2,3-dihydro-1H-isoindol-5-yl]-2,7-diazaspiro[4.5]decan-2-yl}cyclobutoxy]piperidin-1-yl}pyrimidin-4-yl)amino]-2-oxo-1-(propan-2-yl)-1,2-dihydroquinolin-3-yl}oxy)-N-methylacetamide] | 50 to 70% | < 10 nM |
| < 10 nM | ≥ 70% | CNC(=O)COc1cc2cc(Nc3nc(N4CCC(O[C@H]5C[C@H](N6CCN(c7ccc8c(c7F)CN(C7CCC(=O)NC7=O)C8=O)[C@H](C)C6)C5)CC4)ncc3Cl)ccc2n(C(C)C)c1=O (stereo partly shown) [Compound 175] | – | – |
| – | – | CNC(=O)COc1cc2cc(Nc3cc(N4CCC(CN5CCC6(CC5)CN(c5ccc7c(c5OC)CN(C5CCC(=O)NC5=O)C7=O)C6(C)C)CC4)ncc3Cl)ccc2n(C(C)C)c1=O (stereo not shown) [Compound 230, 2-{[6-({5-chloro-2-[4-({2-[2-(2,6-dioxopiperidin-3-yl)-4-methoxy-1-oxo-2,3-dihydro-1H-isoindol-5-yl]-1,1-dimethyl-2,7-diazaspiro[3.5]nonan-7-yl}methyl)piperidin-1-yl]pyridin-4-yl}amino)-2-oxo-1-(propan-2-yl)-1,2-dihydroquinolin-3-yl]oxy}-N-methylacetamide] | – | < 10 nM |
| < 10 nM | 50 to 70% | CNC(=O)COc1cc2cc(Nc3nc(N4CCC(OC5CN([C@H]6CC[C@H](c7ccc8c(c7Cl)CN(C7CCC(=O)NC7=O)C8=O)CC6)C5)CC4)ncc3Cl)ccc2n(C(C)C)c1=O (stereo partly shown) [Compound 185] | – | – |
| – | – | CNC(=O)COc1cc2cc(Nc3nc(N4CCC(O[C@H]5C[C@H](N6CCC(c7cnc8c(c7)CN(C7CCC(=O)NC7=O)C8=O)CC6)C5)CC4)ncc3Cl)ccc2n(C(C)C)c1=O (stereo partly shown) [Compound 216, 2-({6-[(5-chloro-2-{4-[(1r,3r)-3-{4-[6-(2,6-dioxopiperidin-3-yl)-7-oxo-5H,6H,7H-pyrrolo[3,4-b]pyridin-3-yl]piperidin-1-yl}cyclobutoxy]piperidin-1-yl}pyrimidin-4-yl)amino]-2-oxo-1-(propan-2-yl)-1,2-dihydroquinolin-3-yl}oxy)-N-methylacetamide] | 50 to 70% | < 10 nM |
| – | – | CNC(=O)COc1cc2cc(Nc3nc(N4CCC(O[C@H]5C[C@H](N6CC7(CCN(c8ccc9c(c8F)CN(C8CCC(=O)NC8=O)C9=O)CC7)C6)C5)CC4)ncc3Cl)ccc2n(C(C)C)c1=O (stereo partly shown) [Compound 393, 2-({6-[(5-chloro-2-{4-[(1r,3r)-3-{7-[2-(2,6-dioxopiperidin-3-yl)-4-fluoro-1-oxo-2,3-dihydro-1H-isoindol-5-yl]-2,7-diazaspiro[3.5]nonan-2-yl}cyclobutoxy]piperidin-1-yl}pyrimidin-4-yl)amino]-2-oxo-1-(propan-2-yl)-1,2-dihydroquinolin-3-yl}oxy)-N-methylacetamide] | ≥ 70% | < 10 nM |
| – | – | CNC(=O)COc1cc2cc(Nc3nc(N4CCC(O[C@H]5C[C@H](N6CC[C@H](c7ccc8c(c7F)CN(C7CCC(=O)NC7=O)C8=O)[C@@H](O)C6)C5)CC4)ncc3Cl)ccc2n(C(C)C)c1=O (stereo partly drawn) [Compound 284, 2-({6-[(5-chloro-2-{4-[(1r,3r)-3-[(3R,4R)-4-[2-(2,6-dioxopiperidin-3-yl)-4-fluoro-1-oxo-2,3-dihydro-1H-isoindol-5-yl]-3-hydroxypiperidin-1-yl]cyclobutoxy]piperidin-1-yl}pyrimidin-4-yl)amino]-2-oxo-1-(propan-2-yl)-1,2-dihydroquinolin-3-yl}oxy)-N-methylacetamide] | 50 to 70% | < 10 nM |
| – | – | CNC(=O)COc1cc2cc(Nc3nc(N4CCC(O[C@H]5C[C@H](N6C[C@@H](C)N(c7ccc8c(c7)C(=O)N(C7CCC(=O)NC7=O)C8=O)[C@H](C)C6)C5)CC4)ncc3Cl)ccc2n(C(C)C)c1=O (stereo partly drawn) [Compound 245, 2-({6-[(5-chloro-2-{4-[(1r,3r)-3-[(3R,5R)-4-[2-(2,6-dioxopiperidin-3-yl)-1,3-dioxo-2,3-dihydro-1H-isoindol-5-yl]-3,5-dimethylpiperazin-1-yl]cyclobutoxy]piperidin-1-yl}pyrimidin-4-yl)amino]-2-oxo-1-(propan-2-yl)-1,2-dihydroquinolin-3-yl}oxy)-N-methylacetamide] | ≥ 70% | 10 to 50 nM |

| SMILES | DC50 [1] | Dmax [1] | Dmax (T47D) | DC50 |
| --- | --- | --- | --- | --- |
| CNC(=O)COc1cc2cc(Nc3nc(N4CCC(O[C@H]5C[C@H](N6CCN(c7ccc8c(c7)CN(C7CCC(=O)NC7=O)C8=O)C(C)(C)C6)C5)CC4)ncc3Cl)ccc2n(C(C)C)c1=O (stereo partly shown) [Compound 170, 2-({6-[(5-chloro-2-{4-[(1r,3r)-3-{4-[2-(2,6-dioxopiperidin-3-yl)-1-oxo-2,3-dihydro-1H-isoindol-5-yl]-3,3-dimethylpiperazin-1-yl}cyclobutoxy]piperidin-1-yl}pyrimidin-4-yl)amino]-2-oxo-1-(propan-2-yl)-1,2-dihydroquinolin-3-yl}oxy)-N-methylacetamide] | < 10 nM | ≥ 70% | – | – |
